These results are taken from ChEMBL document CHEMBL1201862, “PubChem BioAssay data set” (2004).

Among the test systems are UACC-62; DU-145; TK-10; SNB-19; Hs-578T; EKVX; SN12C; T47D; OVCAR-8; OVCAR-5; SF-268; CCRF-CEM; NCI/ADR-RES; SW-620; SNB-75; SK-MEL-5; NCI-H226; COLO 205; SK-OV-3; OVCAR-3.
Experiment in all cases: DTP human tumour cell line panel, 48 h

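The compound was tested at five concentrations on cells cultured in 96-well plates, with a 48-hour exposure period. GI50: concentration for 50% inhibition of growth.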 Activity calls are given as the source filed them. Cut-off read from the data, not from the text of the source: active = GI50 up to about 1.1 µM and inactive = higher.

Usually GI50 stands for the concentration giving 50% growth inhibition.

Take `CN(C)c1nc2oc(-c3ccccc3)c(-c3ccccc3)c2c2nnnn12`: the GI50 in the assay with UACC-62, in the assay with DU-145, with TK-10, in the assay on SNB-19, in the assay with Hs-578T and with EKVX was > 100 µM (inactive) in each case. Further, the GI50 in the assay on SN12C, in the assay on T47D, in the assay with OVCAR-8, in the assay on OVCAR-5, with SF-268 and with CCRF-CEM was > 100 µM (inactive) each time. Besides, the GI50 in the assay on NCI/ADR-RES was > 100 µM (inactive); in the assay on SW-620, > 100 µM (inactive); with SNB-75, 41.1 µM (inactive); in the assay on SK-MEL-5, > 100 µM (inactive); in the assay on NCI-H226, > 100 µM (inactive); with COLO 205, > 100 µM (inactive). The GI50 with SK-OV-3 was > 100 µM (inactive).

With `Clc1cc(OCC23CC4CC(CC(C4)C2)C3)nc(OCC23CC4CC(CC(C4)C2)C3)n1`, the GI50 in the assay with UACC-62, with DU-145, in the assay on OVCAR-3, in the assay on TK-10, with SNB-19 and in the assay on Hs-578T was > 100 µM (inactive) each time. Further, the GI50 in the assay with EKVX, with SN12C, in the assay on T47D, in the assay on OVCAR-8, in the assay on OVCAR-5 and in the assay on SF-268 was > 100 µM (inactive) throughout. Moreover, the GI50 in the assay with CCRF-CEM, with NCI/ADR-RES, with SW-620, with SNB-75, in the assay with SK-MEL-5 and in the assay with COLO 205 was > 100 µM (inactive) in each case. Also, in the assay with SK-OV-3, the GI50 was > 100 µM (inactive).

Consider `COC1C(O)C(C)OC(OC2C(Oc3cccc4c(O)c5c(=O)oc6ccc(C)c7c(=O)oc(c34)c5c67)OC(C)C3O[C@H](c4ccccc4)OC32)C1O` (stereo partly drawn), for which the GI50 with UACC-62 is 0.14 µM (active); in the assay with DU-145, 0.193 µM (active); with OVCAR-3, 0.195 µM (active); with TK-10, 1.06 µM (active); with SNB-19 it was 0.13 µM (active); with Hs-578T, 0.531 µM (active). The GI50 with EKVX is 1.24 µM (inactive); with SN12C it was 0.0578 µM (active); in the assay on T47D it was 0.196 µM (active); in the assay with OVCAR-8 it was 0.034 µM (active); with OVCAR-5 it was 1.48 µM (inactive); with SF-268 it was 0.135 µM (active). Besides, the GI50 was 2.12 µM (inactive) in the assay on NCI/ADR-RES; 0.0631 µM (active) in the assay on SW-620; 0.583 µM (active) in the assay with SNB-75; 0.131 µM (active) with SK-MEL-5; 0.0682 µM (active) in the assay on NCI-H226; 0.533 µM (active) in the assay with SK-OV-3.

As to `Cc1ccc2nc(Cl)c(/C=N/N3C(=O)/C(=C/c4cccc([N+](=O)[O-])c4)N=C3c3ccccc3)cc2c1`, the GI50 was 34 µM (inactive) in the assay on UACC-62; > 100 µM (inactive) with DU-145; 30.5 µM (inactive) with OVCAR-3; > 100 µM (inactive) with TK-10; > 100 µM (inactive) with SNB-19; 94.6 µM (inactive) in the assay with Hs-578T. Moreover, the GI50 with EKVX is 54.6 µM (inactive); with SN12C it was 35.7 µM (inactive); in the assay on T47D, 59.8 µM (inactive); in the assay on OVCAR-8, 72.4 µM (inactive); with OVCAR-5, > 100 µM (inactive); with SF-268, 97.1 µM (inactive). Besides, the GI50 with CCRF-CEM is 25.9 µM (inactive); with NCI/ADR-RES, 36.5 µM (inactive); with SW-620, 75.5 µM (inactive); in the assay with SNB-75 it was 59.6 µM (inactive); with SK-MEL-5, 43.5 µM (inactive); in the assay with COLO 205 it was 38.7 µM (inactive). Also, in the assay with SK-OV-3, the GI50 is 94.2 µM (inactive).

As to `CC1=C(C#N)C(=C(C#N)C#N)OC1(C)Cc1ccccc1` (stereo not drawn), the GI50 in the assay on UACC-62 was 20.6 µM (inactive); with DU-145, 37 µM (inactive); in the assay with OVCAR-3 it was 14.6 µM (inactive); in the assay on TK-10 it was 36.4 µM (inactive); with SNB-19, > 100 µM (inactive); with Hs-578T, 30 µM (inactive). Besides, the GI50 in the assay on EKVX was 45.9 µM (inactive); in the assay on SN12C it was 82.6 µM (inactive); in the assay with T47D, 29.9 µM (inactive); in the assay with OVCAR-8 it was 65.5 µM (inactive); with OVCAR-5, 61.1 µM (inactive); with SF-268, 49.5 µM (inactive). Also, the GI50 with NCI/ADR-RES was 31.9 µM (inactive); in the assay on SW-620, 42.9 µM (inactive); in the assay on SNB-75 it was > 100 µM (inactive); in the assay with SK-MEL-5, 67.8 µM (inactive); in the assay with NCI-H226, 31.2 µM (inactive); in the assay on COLO 205 it was 21 µM (inactive). For the same compound, the GI50 with SK-OV-3 is > 100 µM (inactive).

Regarding `CCC(=O)O[C@H]1CC[C@H]2[C@@H]3CCC4=C/C(=N/OC(=O)c5cccc6cc7ccccc7nc56)CC[C@]4(C)[C@H]3CC[C@]12C`, the GI50 was 27.8 µM (inactive) in the assay on UACC-62; > 100 µM (inactive) in the assay with DU-145; 29 µM (inactive) in the assay on OVCAR-3; 70.1 µM (inactive) in the assay with SNB-19; 39.6 µM (inactive) in the assay on Hs-578T; 53.6 µM (inactive) in the assay on EKVX. In addition, the GI50 was > 100 µM (inactive) with SN12C; 21.9 µM (inactive) with T47D; 42.3 µM (inactive) with OVCAR-8; > 100 µM (inactive) in the assay on OVCAR-5; > 100 µM (inactive) with SF-268; 41.2 µM (inactive) with CCRF-CEM. The GI50 is 60.4 µM (inactive) with NCI/ADR-RES; 65.8 µM (inactive) in the assay with SW-620; 83.8 µM (inactive) with SNB-75; 15.2 µM (inactive) in the assay with SK-MEL-5; > 100 µM (inactive) in the assay with NCI-H226; 41 µM (inactive) in the assay on COLO 205. In the assay with SK-OV-3, the GI50 was > 100 µM (inactive).

As for `N#Cc1nc(-c2cc([N+](=O)[O-])cc([N+](=O)[O-])c2)oc1N`, the GI50 with UACC-62, with DU-145, with TK-10, in the assay on SNB-19, in the assay on Hs-578T and with EKVX was > 10 µM (inactive) in each case. For the same compound, the GI50 with SN12C, with T47D, with OVCAR-8, in the assay with SF-268, with CCRF-CEM and in the assay on NCI/ADR-RES was > 10 µM (inactive) throughout. The GI50 in the assay on SW-620, in the assay on SNB-75, in the assay with SK-MEL-5, in the assay with NCI-H226, in the assay with COLO 205 and in the assay on SK-OV-3 was > 10 µM (inactive) each time.

For `COc1ccc2c(c1)/C(=C\c1c(Cl)nc3sc(C)cn13)C(=O)N2`, the GI50 with UACC-62 is 3.29 µM (inactive); in the assay on DU-145 it was 5.74 µM (inactive); with OVCAR-3 it was 2.41 µM (inactive); with TK-10, 6.37 µM (inactive); in the assay on SNB-19, 3.84 µM (inactive); in the assay with Hs-578T, 2.74 µM (inactive). In addition, the GI50 was 7.59 µM (inactive) in the assay on EKVX; 7.05 µM (inactive) in the assay on SN12C; 3.99 µM (inactive) in the assay on T47D; 4.06 µM (inactive) in the assay on OVCAR-8; 9.59 µM (inactive) in the assay on OVCAR-5; 4.31 µM (inactive) in the assay with SF-268. For the same compound, the GI50 with CCRF-CEM was 1.19 µM (inactive); in the assay with NCI/ADR-RES, 3.56 µM (inactive); in the assay on SW-620 it was 0.826 µM (active); with SNB-75 it was 4.98 µM (inactive); with SK-MEL-5, 2.16 µM (inactive); in the assay with COLO 205, 1.6 µM (inactive). For the same compound, the GI50 with SK-OV-3 is 4.03 µM (inactive).

As for `Cc1cc(C)c(O)c(CN2CCN(C(C)C)CCN(C(C)C)CC2)c1`, the GI50 with UACC-62 is 27 µM (inactive); with DU-145 it was 85.7 µM (inactive); in the assay on OVCAR-3, 22.2 µM (inactive); in the assay with TK-10 it was 36.2 µM (inactive); with SNB-19 it was 63.1 µM (inactive); in the assay on Hs-578T it was 24.5 µM (inactive). The GI50 with EKVX was 78.5 µM (inactive); in the assay with SN12C it was 27.5 µM (inactive); with T47D, 22 µM (inactive); in the assay with OVCAR-8, 22.2 µM (inactive); in the assay with OVCAR-5, 18.7 µM (inactive); with SF-268, 54.3 µM (inactive). Moreover, the GI50 is 19.1 µM (inactive) in the assay on CCRF-CEM; 25.9 µM (inactive) with NCI/ADR-RES; 42.8 µM (inactive) in the assay with SW-620; 33.7 µM (inactive) in the assay with SNB-75; > 10 µM (inactive) with SK-MEL-5; 12 µM (inactive) with NCI-H226. Moreover, in the assay on COLO 205, the GI50 was 18.6 µM (inactive).

Consider `COc1ccc(-c2oc3cc(OC)c(OC)c(O)c3c(=O)c2OC)cc1`, for which the GI50 in the assay with UACC-62 was 21.4 µM (inactive); with DU-145, 58.7 µM (inactive); with TK-10, 34.1 µM (inactive); in the assay on SNB-19, 28.4 µM (inactive); with Hs-578T it was 24 µM (inactive); in the assay on EKVX, 41.6 µM (inactive). Besides, the GI50 was 80.4 µM (inactive) in the assay with SN12C; 28.4 µM (inactive) in the assay with T47D; 43.2 µM (inactive) in the assay with OVCAR-8; > 100 µM (inactive) in the assay on OVCAR-5; 24.5 µM (inactive) in the assay on SF-268; > 100 µM (inactive) with CCRF-CEM. Besides, the GI50 in the assay on NCI/ADR-RES is 80.5 µM (inactive); with SW-620 it was > 100 µM (inactive); with SNB-75 it was 15.4 µM (inactive); in the assay on SK-MEL-5, > 100 µM (inactive); in the assay with NCI-H226, 48.9 µM (inactive); in the assay on COLO 205, > 100 µM (inactive). Further, in the assay on SK-OV-3, the GI50 is 22.7 µM (inactive).
